System: 356 CRISPRi constructs in E. coli ΔtolC-pore
Experiment: CRISPRi collection fitness screen with sub-inhibitory compound
Assay type: cell-based
Conditions: for Growth represented as mean colony biomass: 1μg/ml MAC0452936, 6ng/ml LolCDE-in-1, 250 ng/ml Vancomycin, 7 ng/ml CHIR090, n=4; for Growth, mean colony biomass (n=4): + 6ng/ml LolCDE-in-1
From the text: To that end, we screened the E. coli CRISPRi collection in the ΔtolC-pore genetic background with a sub-inhibitory concentration of MAC-0452936 and measured the fitness of all 356 CRISPRi mutants (Figure 4C and Data S4). […] To that end, we introduced either an arabinose inducible copy of lgt supplied on the pCHAP9231 plasmid[48] or the pBAD19s plasmid as a control into E. coli ΔtolC-pore and tested the potency of MAC-0452936 (Figure 4E). […] To test this hypothesis, we constructed E. coli ΔlgtΔtolC-pore with pCHAP9231[48] so that lgt expression was driven solely by arabinose from the plasmid.
For screens of the CRISPRi collection with MAC-0452936, the mobile CRISPRi collection was first conjugated into E. coli ΔtolC-pore as previously described.[30] The CRISPRi collection was then arrayed on solid agar at 1536 density using the Singer-ROTOR, such that each CRISPRi strain is arrayed in technical quadruplicate. […] The screens were conducted without CRISPRi induction, using just the 5–10% basal knockdown from the pFD152 CRISPRi plasmid. Following overnight growth, plates were imaged using high-resolution scanners (Epson Perfection v750), and colony biomass for each mutant was determined.

[1] = sub-inhibitory (¼ MIC) concentration, LB agar, basal knockdown

Fc1ccc(COc2cccc(-c3[nH]ncc3-c3ccncc3)c2)cc1 [LolCDE-in-1]
Growth represented as mean colony biomass (gRNA accA): 1.008 | Growth, mean colony biomass (n=4) (gRNA aceF): 1.072 | Growth, mean colony biomass (n=4) (gRNA alaS): 1.101 | Growth, mean colony biomass (n=4) (gRNA argS): 1.113 | Growth, mean colony biomass (n=4) (gRNA asnS): 1.091 | Growth, mean colony biomass (n=4) (gRNA bamA): 1.074 | Growth, mean colony biomass (n=4) (gRNA bamD): 0.9928 | Growth, mean colony biomass (n=4) (gRNA bioA): 1.016 | Growth, mean colony biomass (n=4) (gRNA can): 1.04 | Growth represented as mean colony biomass (gRNA cca): 1 | Growth represented as mean colony biomass (gRNA coaA): 1.117 | Growth, mean colony biomass (n=4) (gRNA csrA): 0.5912 | Growth represented as mean colony biomass (gRNA cydA): 1.002 | Growth represented as mean colony biomass (gRNA cydX): 0.9564 | Growth represented as mean colony biomass (gRNA dapD): 0.9627 | Growth represented as mean colony biomass (gRNA dapE): 0.9407 | Growth represented as mean colony biomass (gRNA der): 0.9198 | Growth represented as mean colony biomass (gRNA dfp): 0.9029 | Growth, mean colony biomass (n=4) (gRNA dnaC): 1.011 | Growth represented as mean colony biomass (gRNA dnaE): 1.003 | Growth represented as mean colony biomass (gRNA dnaN): 0.9294 | Growth represented as mean colony biomass (gRNA dnaX): 0.8532 | Growth, mean colony biomass (n=4) (gRNA dut): 1.113 | Growth represented as mean colony biomass (gRNA eno): 1.0061 | Growth represented as mean colony biomass (gRNA era): 0.9669 | Growth represented as mean colony biomass (gRNA fabA): 0.9879 | Growth represented as mean colony biomass (gRNA fabG): 0.9717 | Growth represented as mean colony biomass (gRNA fabI): 0.9771 | Growth represented as mean colony biomass (gRNA fdx): 0.998 | Growth represented as mean colony biomass (gRNA fldA): 1.014 | Growth, mean colony biomass (n=4) (gRNA folA): 1.074 | Growth represented as mean colony biomass (gRNA folB): 1.004 | Growth, mean colony biomass (n=4) (gRNA folC): 0.9924 | Growth represented as mean colony biomass (gRNA folE): 1.028 | Growth represented as mean colony biomass (gRNA folP): 1.013 | Growth represented as mean colony biomass (gRNA frr): 0.8456 | Growth, mean colony biomass (n=4) (gRNA ftsA): 0.866 | Growth represented as mean colony biomass (gRNA gapA): 0.9875 | Growth, mean colony biomass (n=4) (gRNA glmS): 1.023 | Growth represented as mean colony biomass (gRNA glmU): 0.9948 | Growth represented as mean colony biomass (gRNA gltX): 1.01 | Growth, mean colony biomass (n=4) (gRNA glyA): 0.9609 | Growth represented as mean colony biomass (gRNA groS): 0.8911 | Growth represented as mean colony biomass (gRNA grpE): 0.9325 | Growth represented as mean colony biomass (gRNA guaA): 1.005 | Growth, mean colony biomass (n=4) (gRNA hemD): 1.064 | Growth represented as mean colony biomass (gRNA hemG): 0.9487 | Growth represented as mean colony biomass (gRNA hemH): 0.9202 | Growth represented as mean colony biomass (gRNA hemL): 0.9936 | Growth represented as mean colony biomass (gRNA higA): 0.9523 | Growth represented as mean colony biomass (gRNA hisS): 0.9867 | Growth represented as mean colony biomass (gRNA holD): 1.037 | Growth represented as mean colony biomass (gRNA hscA): 1.068 | Growth, mean colony biomass (n=4) (gRNA infA): 1.13 | Growth represented as mean colony biomass (gRNA infC): 0.9943 | Growth represented as mean colony biomass (gRNA iscU): 0.9298 | Growth represented as mean colony biomass (gRNA ispB): 0.9724 | Growth represented as mean colony biomass (gRNA ispF): 0.9965 | Growth, mean colony biomass (n=4) (gRNA leuS): 1.148 | Growth, mean colony biomass (n=4) (gRNA lexA): 0.4661 | Growth represented as mean colony biomass (gRNA lolC): 0.5845 | Growth, mean colony biomass (n=4) (gRNA lptA): 1.047 | Growth, mean colony biomass (n=4) (gRNA lptB): 0.9337 | Growth represented as mean colony biomass (gRNA lptC): 0.8997 | Growth represented as mean colony biomass (gRNA lptE): 0.9982 | Growth represented as mean colony biomass (gRNA lptF): 0.9678 | Growth represented as mean colony biomass (gRNA lptG): 1.0135 | Growth represented as mean colony biomass (gRNA lpxC): 0.9296 | Growth represented as mean colony biomass (gRNA lpxD): 0.9894 | Growth, mean colony biomass (n=4) (gRNA mnmA): 1.137 | Growth, mean colony biomass (n=4) (gRNA mrdB): 0.9351 | Growth represented as mean colony biomass (gRNA mreB): 0.9708 | Growth represented as mean colony biomass (gRNA mreC): 0.8551 | Growth, mean colony biomass (n=4) (gRNA msbA): 1.057 | Growth, mean colony biomass (n=4) (gRNA mukF): 0.8694 | Growth represented as mean colony biomass (gRNA murB): 1.046 | Growth represented as mean colony biomass (gRNA murC): 0.881 | Growth, mean colony biomass (n=4) (gRNA murI): 0.5015 | Growth, mean colony biomass (n=4) (gRNA nadK): 1.043 | Growth represented as mean colony biomass (gRNA nusB): 0.9929 | Growth represented as mean colony biomass (gRNA plsB): 0.8854 | Growth, mean colony biomass (n=4) (gRNA prmC): 1.031 | Growth represented as mean colony biomass (gRNA proS): 1.0017 | Growth, mean colony biomass (n=4) (gRNA psd): 1.234 | Growth, mean colony biomass (n=4) (gRNA pssA): 0.9781 | Growth, mean colony biomass (n=4) (gRNA ptsI): 1.151 | Growth represented as mean colony biomass (gRNA racR): 0.9577 | Growth, mean colony biomass (n=4) (gRNA rho): 1.25 | Growth represented as mean colony biomass (gRNA ribA): 0.9663 | Growth represented as mean colony biomass (gRNA ribC): 0.899 | Growth, mean colony biomass (n=4) (gRNA ribD): 1.034 | Growth represented as mean colony biomass (gRNA ribF): 0.9681 | Growth represented as mean colony biomass (gRNA rimM): 1.015 | Growth represented as mean colony biomass (gRNA rluD): 1.0361 | Growth, mean colony biomass (n=4) (gRNA rne): 1.086 | Growth represented as mean colony biomass (gRNA rpe): 1.032 | Growth, mean colony biomass (n=4) (gRNA rplA): 1.044 | Growth represented as mean colony biomass (gRNA rplD): 0.9769 | Growth represented as mean colony biomass (gRNA rplE): 0.973 | Growth represented as mean colony biomass (gRNA rplJ): 0.9047 | Growth represented as mean colony biomass (gRNA rplO): 0.9645 | Growth, mean colony biomass (n=4) (gRNA rplP): 1.111 | Growth represented as mean colony biomass (gRNA rplQ): 1.063 | Growth represented as mean colony biomass (gRNA rplS): 0.9823 | Growth, mean colony biomass (n=4) (gRNA rplV): 1.159 | Growth, mean colony biomass (n=4) (gRNA rplX): 1.003 | Growth represented as mean colony biomass (gRNA rplY): 1.022 | Growth, mean colony biomass (n=4) (gRNA rpmC): 1.247 | Growth represented as mean colony biomass (gRNA rpmH): 0.9499 | Growth represented as mean colony biomass (gRNA rpmI): 0.8822 | Growth, mean colony biomass (n=4) (gRNA rpoC): 0.9718 | Growth, mean colony biomass (n=4) (gRNA rpoE): 1.012 | Growth represented as mean colony biomass (gRNA rpoH): 1.025 | Growth, mean colony biomass (n=4) (gRNA rpsC): 0.9823 | Growth, mean colony biomass (n=4) (gRNA rpsD): 1.397 | Growth represented as mean colony biomass (gRNA rpsE): 1.159 | Growth represented as mean colony biomass (gRNA rpsF): 1.092 | Growth, mean colony biomass (n=4) (gRNA rpsG): 0.9387 | Growth represented as mean colony biomass (gRNA rpsH): 1.028 | Growth, mean colony biomass (n=4) (gRNA rpsK): 1.066 | Growth, mean colony biomass (n=4) (gRNA rpsL): 0.9811 | Growth, mean colony biomass (n=4) (gRNA rpsM): 1.056 | Growth, mean colony biomass (n=4) (gRNA rpsR): 1.049 | Growth, mean colony biomass (n=4) (gRNA rpsT): 1.1909 | Growth represented as mean colony biomass (gRNA rsgA): 0.9518 | Growth represented as mean colony biomass (gRNA safA): 0.9369 | Growth, mean colony biomass (n=4) (gRNA secA): 1.053 | Growth represented as mean colony biomass (gRNA secY): 1.019 | Growth represented as mean colony biomass (gRNA serS): 1.011 | Growth represented as mean colony biomass (gRNA ssb): 1.001 | Growth represented as mean colony biomass (gRNA sucA): 0.955 | Growth, mean colony biomass (n=4) (gRNA suhB): 0.9525 | Growth represented as mean colony biomass (gRNA tilS): 0.9992 | Growth represented as mean colony biomass (gRNA tonB): 0.9792 | Growth represented as mean colony biomass (gRNA trmD): 0.9503 | Growth represented as mean colony biomass (gRNA tsaB): 1.056 | Growth represented as mean colony biomass (gRNA tsaD): 0.9679 | Growth, mean colony biomass (n=4) (gRNA tsaE): 1 | Growth represented as mean colony biomass (gRNA tsf): 1.027 | Growth represented as mean colony biomass (gRNA tusE): 1.013 | Growth represented as mean colony biomass (gRNA tyrS): 1.017 | Growth represented as mean colony biomass (gRNA ubiB): 0.9814 | Growth represented as mean colony biomass (gRNA ubiD): 0.9742 | Growth, mean colony biomass (n=4) (gRNA waaA): 1.024 | Growth represented as mean colony biomass (gRNA ydaS): 0.9646 | Growth represented as mean colony biomass (gRNA ydcD): 0.9635 | Growth represented as mean colony biomass (gRNA ydhL): 0.9757 | Growth, mean colony biomass (n=4) (gRNA yedN): 1.025 | Growth represented as mean colony biomass (gRNA yejM): 1.046 | Growth represented as mean colony biomass (gRNA yffS): 1.013 | Growth represented as mean colony biomass (gRNA ygeF): 0.9624 | Growth, mean colony biomass (n=4) (gRNA ygeN): 1.008 | Growth represented as mean colony biomass (gRNA yidC): 0.8393 | Growth represented as mean colony biomass (gRNA ymfE): 0.903 | Growth represented as mean colony biomass (gRNA ymiB): 0.9243 | Growth, mean colony biomass (n=4) (gRNA yqeL): 1.1914 | Growth represented as mean colony biomass (gRNA yqgF): 0.9509 | Growth, mean colony biomass (n=4) (gRNA zipA): 1.134 | growth defect of CRISPRi strains for the compound's molecular target (LolCDE complex and LpxC, respectively) [1]: strongest growth defect | growth defect of the lgt CRISPRi mutant in the presence of compound [1]: did not demonstrate a growth defect

— paper PMC11456916, “A screen for cell envelope stress uncovers an inhibitor of prolipoprotein diacylglyceryl transferase, Lgt, in Escherichiacoli” (iScience, 2024)
